Results: patent publication US12606836B2, “Process for extracellular secretion of Brazzein” (MAGELLAN LIFE SCIENCES LTD., priority 2016, dated 2026)
Read-outs that look alike come from different tables or passages of the source.

Legend:
[1] = cited from earlier work
[2] = Thermal stability of secreted Brazzein (heating of cell free supernatant, SDS-PAGE); format: physicochemical; settings: cell free supernatant heated at 80° C. for 60 mins, centrifuged at 17,500 g, FIG. 11
Method: Protein expression was analyzed by SDS-PAGE on 15% Tris-Glycine gels. To analyze protein in the cell culture medium, 17 μL of cell free supernatant (corresponding to 0.07% of total culture volume) was mixed with 17 μL of 2× reducing sample buffer, heated for 5 mins in a PCR machine, briefly spun and loaded into the gel. The gel was run at a constant voltage of 125V till the dye front exited the gel. The gels were washed in MILLI-Q® water for 1 hour and stained with Coomassie Stain. To analyze protein in whole cells, frozen cell pellets were thawed, re-suspended in 50 μL of MILLI-Q*water. 17 μL of resuspended cells were mixed with 17 μL of 2× Reducing Sample Buffer, heated for 5 mins in a PCR machine, briefly spun and loaded into the gel. The gel was run at constant voltage of 125V till the dye front exited it. The gels were washed in MILLI-Q*water for 1 hour and stained with Coomassie Stain.
[…] The supernatant was analyzed by SDS-PAGE. Protein quantitation was done using BCA assay kit. As a result of heating, most of the endogenous E. coli proteins present in the cell free supernatant precipitated, leaving >90% pure Brazzein in solution.

taste panel = assay: Sensory analysis of purified Brazzein (taste panel, sweetness threshold versus sucrose); format: in vivo, humans; settings: for Experimental Threshold: first sample sensed as sweet, 200 microliter applied to anterior tongue, 30 tasters; for Relative Sweetness (by weight): relative to sucrose, 1% (w/v) sucrose reference
Method: A portion of the purified Brazzein (A28D) was lyophilized and re-dissolved in deionized water to 1.0 mg/mL. From this, Brazzein (A28D) solutions with following concentrations were made: 0.5, 1.0, 2.0, 3.0, 4.0, 5.0, 6.0, 7.0, 8.0, 9.0, and 10.0 μg/mL. A 1% (w/v) sucrose solution, the lowest concentration of sucrose detectable by humans, was used as a reference. The taste panel consisted of fifteen females and fifteen males with normal health and normal sense of taste. Two-hundred-microliter samples were applied to the anterior region of the tongue. After each test, the mouth was rinsed with tap water. The tasters sampled from the lower concentration samples to higher. Each taster chose the first sample that could be sensed for sweetness. Sweetness potencies were reported relative to sucrose on a weight basis.

## Brazzein: high-potency thermostable sweet protein, originally isolated from the fruit of Pentadiplandra brazzeana Baillon (DKCKKVYENYPVSKCQLANQCNYDCKLDKHARSGECFYDEKRNLQCICDYCEY; Synthetic: Amino Acid Sequence of pelB-Brazzein(A28D))
[1]; in comparison to 2% sucrose aqueous solution
  sweeter than sucrose: 2,500 times
[1]; in comparison to 10% sucrose
  sweeter than sucrose: 500 times
[2]
  thermal stability: Brazzein in soluble supernatant after heating: Presence of Brazzein in lanes 1 and 2

## OC[C@H]1O[C@@](CO)(O[C@H]2O[C@H](CO)[C@@H](O)[C@H](O)[C@H]2O)[C@@H](O)[C@@H]1O [Sucrose, reference compound]
Taste panel
  Experimental Threshold: 1 % [g/100 mL]
  Relative Sweetness (by weight): 1

B1: Brazzein(A28D): wild-type TypeIII Brazzein; residue 50 of pelB-Brazzein mutated from Alanine to Aspartate; mature protein from Seq Id No. 8 (protein)
chain: MKYLLPTAAAGLLLLAAQPAMADKCKKVYENYPVSKCQLANQCNYDCKLDKHARSGECFYDEKRNLQCICDYCEY
modifications: misc_feature 1..234 Synthetic: nucleotide Sequence encoding pelB conjugated to Brazzein(A28D)
Taste panel
  Experimental Threshold: 0.0006 % [g/100 mL]
  Relative Sweetness (by weight): 1660
Taste panel; relative to 1% (w/v) sucrose reference
  sweeter than sucrose on a weight basis: 1660 times
